Data on one compound can be found in US20170304329A1 (THE UNIVERSITY OF KANSAS, priority 2014, published 2017).

Common to all, as to format: cell-based, human
Assay [1] deals with Notch, Wnt and Hedgehog signaling pathways in T24 cells. The assay is described as follows: RT-PCR array of signal transduction pathways. How it is done: We performed an RT-PCR array analyses as a preliminary study to identify the pathways affected by ciclopirox (CPX). Expression analysis was performed using RT2 Profiler™ PCR Arrays (SA Biosciences, Frederick, Md., USA) per the manufacturer's instructions. The Human signal transduction pathway finder polymerase chain reaction (PCR) array was used (cat. no. PAHS-014ZA). Briefly, Total RNA isolated from T24 cells using TRIZOL reagent was reverse transcribed with Superscript II reverse transcriptase in the presence of random hexanucleotide primers (all from Invitrogen, Carlsbad, Calif.). Complementary DNA (2 μg) was mixed with 1,275 μL RT2 SYBR Green qPCR Master Mix (PA-010; SA Biosciences) to make up a total volume of 2,550 μL. Each well received 25 μL of this mix. qPCR was performed on an Bio-Rad CFX machine following detection protocols recommended by SA Biosciences. Changes in mRNA expression were expressed as fold change relative to control.

The subject of another assay is T24 cells. Kind of assay: Cell proliferation, hexosaminidase assay. How it is done: (§1) To determine the effect of CPX on bladder cancer cell proliferation in T24 (MIBC) and 253-JBV (NMIBC) cells, 5,000 cells per well were seeded on to 96-well plates and grown overnight. The cells were then treated with increasing doses of CPX in RPMI media containing 10% FBS. Analysis of cell proliferation after the treatment period was estimated by the hexosaminidase assay. Briefly, the medium was removed and hexosaminidase substrate solution in citrate buffer pH 5 (7.5 mM), p-nitrophenol-N-acetyl-beta-D-glucosaminidase (Sigma Aldrich) was added at 75 μL per well. The plate was incubated at 37° C. in 100% humidity for 30 minutes. The reaction was stopped with 112.5 μL of 50 mM glycine containing 5 mM of EDTA (pH 10.4). The absorbance was measured at 405 nm. Experiments were conducted at n=6, and then repeated at least three times. The data were analyzed as percent of control, where the control wells were treated with equivalent amounts of DMSO alone. For IC50 calculations, a plot between the drug concentration and hexosaminidase activity was generated and the data was fitted either linearly or exponentially. The best fit was used for further processing of data.
(§2) We determined and compared the effect of CPX with CPX-POM and CPX-glucuronide in vitro by performing proliferation assay. To determine the effect of CPX, CPX-POM and CPX-glucuronide on bladder cancer cell proliferation in T24 (MIBC) and 253-JBV (NMIBC) cells, 5,000 cells per well were seeded on to 96-well plates and grown overnight. The cells were then treated with increasing doses of CPX, CPX-POM and CPX-glucuronide in RPMI media containing 10% FBS. Analysis of cell proliferation after the treatment period was estimated by the hexosaminidase assay. Briefly, the medium was removed and hexosaminidase substrate solution in citrate buffer pH 5 (7.5 mM), p-nitrophenol-N-acetyl-beta-D-glucosaminidase (Sigma Aldrich) was added at 75 μL per well. The plate was incubated at 37° C. in 100% humidity for 30 minutes. The reaction was stopped with 112.5 μL of 50 mM glycine containing 5 mM of EDTA (pH 10.4). The absorbance was measured at 405 nm.
(§3) Experiments were conducted at n=6, and then repeated at least three times. The data were analyzed as percent of control, where the control wells were treated with equivalent amounts of DMSO alone. For IC50 so calculations, a plot between the drug concentration and hexosaminidase activity was generated and the data was fitted either linearly or exponentially.

For a further assay, the system named is 253JBV cells. The assay is described as follows: Cell proliferation, hexosaminidase assay. As to conditions: for IC50: 48 h. How it is done: as §1, §2, §3
Assay [2] has as its system T24 bladder cancer cell spheroids. Kind of assay: Spheroid (bladdosphere) assay. Conditions: I generation, 7 days. From the text:
(§4) The spheroid assay, which is sometimes also called the 3D assay was developed as a method to propagate epithelial stem cells in vitro, and is now a standard surrogate reporter for stem cell activity. The assay (in this case called bladdosphere assay) is based on the hypothesis that the unique, undifferentiated cells present in bladder cancers will survive in suspension culture, while the other cells will die by anoikis. Therefore, we characterized the effect of ciclopirox (CPX) in bladdosphere assay. Here, cancer cells are plated in ultra-low binding plates and the resulting spheroids are believed to represent growth from stem cells.
(§5) For formation of spheroids, cells were cultured in RPMI 1640 (Mediatech) supplemented with 20 ng/mL bFGF (Invitrogen) 10 mL per 500 mL of 50×B27 supplement (Invitrogen) EGF 20 ng/mL (Invitrogen) and antibiotic and antimycotic solution. Cells were seeded at low densities (5000 cells/mL) in 6-well low adhesion plates. The cells were treated with increasing concentrations of CPX (0.5×, 1×, and 2× of IC50 calculated from cell proliferation assay—2 μM for 253JBV and 4 μM for T24). After 7 days the spheroids were photographed (I generation). Control spheroids and spheroids treated with CPX (1×IC50) were collected, trypsinized and re-plated for the secondary spheroid growth (II generation), followed by tertiary spheroid development (III generation).

The subject of assay [3] is 253JBV bladder cancer cell spheroids. The assay is described as follows: Spheroid (bladdosphere) assay. As to conditions: I generation, 7 days.
Description: as §4, §5

As for `Cc1cc(C2CCCCC2)n(O)c(=O)c1` [CPX, 6-cyclohexyl-1-hydroxy-4-methylpyridin-2(1H)-one], in assay [1], the “mRNA expression of CSC signaling pathway genes” value is “significantly reduced the mRNA expression of Notch and its downstream signaling proteins”. Further, the half-maximal inhibitory concentration (IC50) is 4 µM with T24 cells (Homo sapiens, T-24, 48 h, 48 h); 3000 nM in the assay with 253JBV cells; 2000 nM in the assay on 253JBV cells (Homo sapiens). Besides, the “effect on cell proliferation” value with T24 cells (up to 72 h) is “significant dose- and time-dependent decrease in cell proliferation”; with 253JBV cells (up to 72 h), “significant dose- and time-dependent decrease in cell proliferation”. The spheroid formation result in assay [2] was “significant decrease in size and number of spheroids”; in assay [3], “significant decrease in size and number of spheroids”.

As usually defined, the IC50 is the point on the concentration scale where inhibition reaches its midpoint. A higher IC50 goes with weaker potency.
